ChEMBL document CHEMBL1201862, “PubChem BioAssay data set” (2004)
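Results reflect a 48-hour exposure of cells in 96-well plates to compound at five concentrations. GI50 marks 50% less growth.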 The source made the active and inactive calls. Rule as the data show it: active = GI50 up to about 1.1 µM and inactive = higher.

Experiments:
Experiment in all cases: inhibition of tumour cell growth, NCI panel, 48 h
XF498 = tested on: XF498
LXFL 529 = tested on: LXFL 529
M19-MEL = tested on: M19-MEL
HOP-18 = tested on: HOP-18
RXF 631 = tested on: RXF 631
DLD-1 = tested on: DLD-1
DMS-273 = tested on: DMS-273
SNB-78 = tested on: SNB-78
KM-20L2 = tested on: KM-20L2

SMILES	GI50 (XF498)	GI50 (LXFL 529)	GI50 (M19-MEL)	GI50 (HOP-18)	GI50 (RXF 631)	GI50 (DLD-1)	GI50 (DMS-273)	GI50 (SNB-78)	GI50 (KM-20L2)
COC(=O)C12C3C4C1C1C2C3C41C(=O)OC(C)(C)C (stereo not given)	> 100 µM (inactive)	> 100 µM (inactive)	> 100 µM (inactive)	> 100 µM (inactive)	> 100 µM (inactive)	> 47.9 µM (inactive)	> 44.1 µM (inactive)	> 100 µM (inactive)	> 100 µM (inactive)
CC(C)(C)c1nc2c(o1)C(=O)c1ccccc1C2=O	2.67 µM (inactive)	6.44 µM (inactive)	1.25 µM (inactive)	7.19 µM (inactive)	5.92 µM (inactive)	5.83 µM (inactive)	5.08 µM (inactive)	11.5 µM (inactive)	22.1 µM (inactive)
Cc1cc2c(=O)cc(-c3ccc(C(F)(F)F)cc3)oc2c(C(=O)O)c1C	> 100 µM (inactive)	> 100 µM (inactive)	> 100 µM (inactive)	> 100 µM (inactive)	> 100 µM (inactive)	> 100 µM (inactive)	> 100 µM (inactive)	> 100 µM (inactive)	> 100 µM (inactive)
CCN(CC)CCOC(=O)Cc1cccc2c(=O)cc(-c3ccccc3)oc12	18 µM (inactive)		84.5 µM (inactive)	78.2 µM (inactive)		94.8 µM (inactive)	361 µM (inactive)	84.9 µM (inactive)	95.3 µM (inactive)
Cc1ccccc1C(C#N)/C(=N/NC(N)=S)C(=O)Nc1c(C)cccc1C (stereo not given)	32.8 µM (inactive)	> 100 µM (inactive)	80 µM (inactive)	> 100 µM (inactive)	> 100 µM (inactive)	> 100 µM (inactive)		> 100 µM (inactive)	> 100 µM (inactive)
Nc1ccc(Sc2c3ccccc3nc3ccccc23)cc1	14.4 µM (inactive)	7.96 µM (inactive)	20.5 µM (inactive)	22.3 µM (inactive)		6 µM (inactive)	14.1 µM (inactive)	22.4 µM (inactive)	16.7 µM (inactive)
COC(=O)C(C(=O)C(=O)Nc1cccc(O)c1)c1nc2ccc(Cl)cc2nc1O (stereo not given)		> 100 µM (inactive)	> 100 µM (inactive)	98.9 µM (inactive)	> 100 µM (inactive)	> 100 µM (inactive)		> 100 µM (inactive)	> 100 µM (inactive)
OCC(O)C(OC1OC(CO)C(O)C(O)C1O)c1nn(-c2ccc(Cl)cc2)c2nc3cc(Cl)c(Cl)cc3nc12 (stereo not given)	> 100 µM (inactive)	> 100 µM (inactive)	> 100 µM (inactive)			> 100 µM (inactive)		> 100 µM (inactive)	> 100 µM (inactive)
Cc1nc2ccccc2c(=O)n1NC(=S)Nc1cccc(Cl)c1		> 100 µM (inactive)	> 100 µM (inactive)	> 100 µM (inactive)		> 100 µM (inactive)	> 100 µM (inactive)		
Cc1cccc(C)c1NC(=O)C(=O)Cc1nc2ccccc2s1	> 100 µM (inactive)	> 100 µM (inactive)	> 100 µM (inactive)			> 100 µM (inactive)	> 100 µM (inactive)	> 100 µM (inactive)	> 100 µM (inactive)
O=C(NC(=O)c1c(F)cccc1F)Nc1cccc(Oc2ncc(Cl)cn2)c1	19.7 µM (inactive)	> 91 µM (inactive)	> 100 µM (inactive)	> 100 µM (inactive)	> 100 µM (inactive)	> 100 µM (inactive)	2.45 µM (inactive)	> 100 µM (inactive)	
C[C@]12CCC(=O)C=C1CC[C@@H]1C2CC[C@@]2(C)C1CC[C@@H]2OC(=O)C12OC1CCC2=O (stereo not given in full)	13.9 µM (inactive)	14.8 µM (inactive)	16.7 µM (inactive)	17.4 µM (inactive)			15.5 µM (inactive)	16.8 µM (inactive)	18.7 µM (inactive)
O=C(Nc1ccc(S(=O)(=O)N[C@@H](C(=O)O)c2ccccc2)cc1)c1ccc(F)cc1	67.5 µM (inactive)	> 100 µM (inactive)	> 100 µM (inactive)	> 100 µM (inactive)		> 100 µM (inactive)	> 100 µM (inactive)		> 100 µM (inactive)
COc1cc([C@@H]2c3cc4c(cc3[C@@H](NC(=O)c3cccc([N+](=O)[O-])c3)C3COC(=O)[C@@H]32)OCO4)cc(OC)c1O (stereo not given in full)		10.3 µM (inactive)	2.55 µM (inactive)		1.31 µM (inactive)	3.33 µM (inactive)	0.149 µM (active)	4.73 µM (inactive)	2.82 µM (inactive)
CC(c1ccccc1)N1CC(C)(c2ccccc2)N(O)C(c2ccccc2)C1C (stereo not given)		9.06 µM (inactive)	> 10 µM (inactive)	17.7 µM (inactive)	12.6 µM (inactive)	23.7 µM (inactive)	7.93 µM (inactive)	15.1 µM (inactive)	4.39 µM (inactive)
COc1ccc(C(=O)C(c2ccc(OC)cc2)C2OC(=O)C(Cl)=C2Cl)cc1 (stereo not given)	> 100 µM (inactive)	> 100 µM (inactive)	> 100 µM (inactive)	> 100 µM (inactive)		> 100 µM (inactive)		> 100 µM (inactive)	
Clc1ccc(OCCSCCCCCCCCCCSCCOc2ccc(Cl)cc2)cc1			> 100 µM (inactive)	> 100 µM (inactive)		> 100 µM (inactive)	> 100 µM (inactive)	> 100 µM (inactive)	> 100 µM (inactive)
c1ccc(C2[C@@H]3CCCc4ccccc4C3=NN2c2ccccc2)cc1 (stereo not given in full)	28.2 µM (inactive)	53.2 µM (inactive)	> 100 µM (inactive)			51.6 µM (inactive)		> 100 µM (inactive)	> 100 µM (inactive)
